Source: patent US9133207B2, “Tetrandrine derivatives with substituted 5-carbon, preparation method and use thereof” (Hangzhou Bensheng Pharmaceutical Co., Ltd., priority 2011, dated 2015)
In brackets after ≈: the same amount, converted by molar mass.

Columns and labels:
[1] = tested on: NB4 (acute promyelocytic leukemia, AML); test: Leukemia cell growth inhibition, MTT, 72 h (Example 5); type: cell-based, human; details: Homo sapiens; 72 h, MTT
How it was run: (§1)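 6000 cells/well in RPMI 1640 with 10% FBS exposed to graded derivative concentrations for 72 h at 37 °C, 5% CO2. Viable cell concentration then measured by MTT.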

[2] = tested on: Kasumi-1 (acute myeloid leukemia M2 type, AML-M2); test: as above; type: cell-based, human; details: Homo sapiens, Kasumi 1
How it was run: as §1

[3] = tested on: Jurkat (acute lymphoblastic leukemia, ALL); test: as above; type: cell-based, human; details: Homo sapiens, Jurkat; 72 h, MTT
How it was run: as §1

[4] = tested on: H9 (acute lymphoblastic leukemia, ALL); test: as above; type: cell-based, human; details: Homo sapiens; 72 h, MTT
How it was run: as §1

[5] = tested on: K562/adr (drug-resistant, chronic myeloid leukemia, CML); test: as above; type: cell-based, human; details: Homo sapiens, K562/Adr; 72 h, MTT
How it was run: as §1

[6] = tested on: RPMI8226 (multiple myeloma); test: Multiple myeloma cell growth inhibition, MTT, 72 h (Example 6); type: cell-based, human; details: Homo sapiens, RPMI-8226; 72 h, MTT, RPMI8226
How it was run: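 RPMI8226 cells (6000 per well) in RPMI 1640 with 10% FBS were exposed to a range of tetrandrine derivative concentrations for 72 h at 37 °C under 5% CO2. Viable cell concentration was then measured by MTT.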

MG63 (osteosarcoma) = test: Solid tumor cell growth inhibition, MTT, 72 h (Example 7); type: cell-based, human; details: Homo sapiens; 72 h, MTT, MG-63
How it was run: (§2)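 Read-out is MTT-based viable cell concentration, reported as % viability relative to untreated control set at 100%. Cells at 4000 per well received tetrandrine derivatives at various concentrations for 72 h after 24 h attachment in DMEM high glucose/10% FBS, 37 °C, 5% CO2.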

PC-3 (prostate cancer) = test: as above; type: cell-based, human; details: Homo sapiens; 72 h, MTT, PC-3
How it was run: as §2

[7] = tested on: CaES-17 (esophageal cancer cell); test: as above; type: cell-based, human; details: Homo sapiens, CaEs17; 72 h, MTT, CAES-17
How it was run: as §2

[8] = tested on: PANC-1 (pancreatic cancer); test: as above; type: cell-based, human; details: Homo sapiens; 72 h, MTT, PANC-1
How it was run: as §2

[9] = tested on: Huh7 (human liver cancer cell); test: as above; type: cell-based; details: Homo sapiens; 72 h, MTT, Huh-7
How it was run: as §2

[10] = tested on: MGC 803 (human gastric cancer cell); test: as above; type: cell-based; details: Homo sapiens
How it was run: as §2

[11] = tested on: RKO (human colon adenocarcinoma cell); test: as above; type: cell-based; details: Homo sapiens; 72 h, MTT, RKO
How it was run: as §2

[12] = tested on: Becap37 (human breast cancer cell); test: as above; type: cell-based; details: Homo sapiens; 72 h, MTT, Becap-37
How it was run: as §2

A549 (human lung cancer) = test: as above; type: cell-based; details: Homo sapiens; 72 h, MTT, A549
How it was run: as §2

Row | Compound | IC50 [1] [µg/mL] | IC90 [1] [µg/mL] | IC50 [2] [µg/mL] | IC90 [2] [µg/mL] | IC50 [3] [µg/mL] | IC90 [3] [µg/mL] | IC50 [4] [µg/mL] | IC90 [4] [µg/mL] | IC50 [5] [µg/mL] | IC90 [5] [µg/mL] | IC50 [6] [µg/mL] | IC90 [6] [µg/mL] | IC50 (MG63 (osteosarcoma)) [µg/mL] | IC90 (MG63 (osteosarcoma)) [µg/mL] | IC50 (PC-3 (prostate cancer)) [µg/mL] | IC90 (PC-3 (prostate cancer)) [µg/mL] | IC50 [7] [µg/mL] | IC90 [7] [µg/mL] | IC50 [8] [µg/mL] | IC90 [8] [µg/mL] | also measured
1 | COc1ccc2cc1Oc1ccc(cc1)C[C@H]1c3cc(c(OC)cc3CCN1C)Oc1c(OC)c(OC)c(CNCC(C)O)c3c1[C@H](C2)N(C)CC3 (stereo partly drawn) [BS-TE-315] | 1.63 (≈ 2.3 µM) | 5.66 (≈ 7.97 µM) | 1.99 (≈ 2.8 µM) | 7.72 (≈ 10.9 µM) | 4.53 (≈ 6.38 µM) | 11 (≈ 15.6 µM) | 2.6 (≈ 3.66 µM) | 4.83 (≈ 6.8 µM) | 4.78 (≈ 6.73 µM) | 10.4 (≈ 14.7 µM) | 0.3 (≈ 0.423 µM) | 2.07 (≈ 2.92 µM) | 1.41 (≈ 1.99 µM) | 3.11 (≈ 4.38 µM) | 6.41 (≈ 9.03 µM) | 8 (≈ 11.3 µM) | 2.4 (≈ 3.38 µM) | 20.8 (≈ 29.4 µM) | 5.89 (≈ 8.3 µM) | 14.7 (≈ 20.7 µM) | IC50 [9]: 3.07 µg/mL (≈ 4.32 µM); IC90 [9]: 4.98 µg/mL (≈ 7.02 µM); IC50 [10]: 3.63 µg/mL (≈ 5.11 µM); IC90 [10]: 10.5 µg/mL (≈ 14.7 µM); IC50 [11]: 1.64 µg/mL (≈ 2.31 µM); IC90 [11]: 3.39 µg/mL (≈ 4.78 µM); IC50 [12]: 2.95 µg/mL (≈ 4.16 µM); IC90 [12]: 9.79 µg/mL (≈ 13.8 µM); IC50 (A549 (human lung cancer)): 1.96 µg/mL (≈ 2.76 µM); IC90 (A549 (human lung cancer)): 9.36 µg/mL (≈ 13.2 µM)
2 | COc1ccc2cc1Oc1ccc(cc1)C[C@H]1c3cc(c(OC)cc3CCN1C)Oc1c(OC)c(OC)c(CN3CCC(O)C3)c3c1[C@H](C2)N(C)CC3 (stereo partly drawn) [BS-TE-322] | 0.83 (≈ 1.15 µM) | 3.48 (≈ 4.82 µM) | 1.22 (≈ 1.69 µM) | 3.83 (≈ 5.31 µM) | 1.67 (≈ 2.31 µM) | 3.97 (≈ 5.5 µM) | 1.08 (≈ 1.5 µM) | 2.19 (≈ 3.03 µM) | 1.1 (≈ 1.52 µM) | 3.24 (≈ 4.49 µM) | 0.14 (≈ 0.194 µM) | 0.7 (≈ 0.97 µM) | 1 (≈ 1.39 µM) | 2.24 (≈ 3.1 µM) | 2.26 (≈ 3.13 µM) | 4.06 (≈ 5.62 µM) | 1.58 (≈ 2.19 µM) | 9.61 (≈ 13.3 µM) | 3.29 (≈ 4.56 µM) | 5.41 (≈ 7.49 µM) | IC50 [9]: 1.42 µg/mL (≈ 1.97 µM); IC90 [9]: 1.94 µg/mL (≈ 2.69 µM); IC50 [10]: 2.29 µg/mL (≈ 3.17 µM); IC90 [10]: > 10 µg/mL; IC50 [11]: 0.9 µg/mL (≈ 1.25 µM); IC90 [11]: 2.4 µg/mL (≈ 3.32 µM); IC50 [12]: 2.31 µg/mL (≈ 3.2 µM); IC90 [12]: 4 µg/mL (≈ 5.54 µM); IC50 (A549 (human lung cancer)): 1.83 µg/mL (≈ 2.53 µM); IC90 (A549 (human lung cancer)): 6.34 µg/mL (≈ 8.78 µM)
3 | COc1ccc2cc1Oc1ccc(cc1)C[C@H]1c3cc(c(OC)cc3CCN1C)Oc1c(OC)c(OC)c(COC(C)=O)c3c1[C@H](C2)N(C)CC3 [BS-TE-223] | 2.57 (≈ 3.7 µM) | 7.42 (≈ 10.7 µM) | 2 (≈ 2.88 µM) | 8 (≈ 11.5 µM) | 3.42 (≈ 4.92 µM) | 11.3 (≈ 16.2 µM) | 4.19 (≈ 6.03 µM) | 8.89 (≈ 12.8 µM) | 0.5 (≈ 0.72 µM) | 9.91 (≈ 14.3 µM) | 0.23 (≈ 0.331 µM) | 2.29 (≈ 3.3 µM) | 5.13 (≈ 7.38 µM) | 7.64 (≈ 11 µM) | 5.6 (≈ 8.06 µM) | 28 (≈ 40.3 µM) | 9.8 (≈ 14.1 µM) | 37.5 (≈ 54 µM) | 10.7 (≈ 15.4 µM) | 16 (≈ 23 µM) | IC50 [9]: 4.14 µg/mL (≈ 5.96 µM); IC90 [9]: 7.97 µg/mL (≈ 11.5 µM); IC50 [10]: 3.54 µg/mL (≈ 5.09 µM); IC90 [10]: 38.1 µg/mL (≈ 54.8 µM); IC50 [11]: 4.23 µg/mL (≈ 6.09 µM); IC90 [11]: 7.5 µg/mL (≈ 10.8 µM); IC50 [12]: 6.77 µg/mL (≈ 9.74 µM); IC90 [12]: 15 µg/mL (≈ 21.6 µM); IC50 (A549 (human lung cancer)): 4.45 µg/mL (≈ 6.4 µM); IC90 (A549 (human lung cancer)): 14.2 µg/mL (≈ 20.4 µM)
